This is an account of results in patent publication US20220251081A1, “HETEROBICYCLIC INHIBITORS OF MAT2A AND METHODS OF USE FOR TREATING CANCER” (priority 2019, published 2022).

Experiment [1] has as its target T1, MAT2A homodimer (Homo sapiens, UniProt P31153).
T1 construct: inferred from Ni sepharose purification and imidazole elution; made in house; host or cells: Sf9 insect cells, recombinant baculovirus (Bac to Bac, pFASTBAC1 vector)
The experiment is described as follows: Biochemical assay: inhibition of recombinant MAT2A homodimer (phosphate release, PiColorLock Gold). The note with it: MAT2A IC50 score; read-out: Enzyme Inhibition. In short, it runs like this: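 Baculovirus/Sf9-expressed, Ni-purified MAT2A at 4 μg/mL in pH 8.0 Tris/KCl/MgCl2/EDTA/BSA buffer, preincubated with compound 60 min at 25 °C. Started with ATP and L-methionine substrate mix (500 μM and 40 μM, stock in mix), 60 min at 25 °C; released phosphate by PiColorLock Gold against a phosphate standard curve.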

In experiment [2] the test system is SAM in HCT116 human colon carcinoma cell line with deleted MTAP gene. The experiment is described as follows: Cellular assay of target engagement (SAM): SAM level by LC-MS/MS after 72 hrs. The note with it: HCT-116, IC50 score, read-out: Cell 72 h SAM Inhibition (MTAP −/−). It is filed as cell-based. In a few lines: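 MTAP-deleted HCT116 cells were seeded, then exposed 24 h later to a 10-point 3-fold compound dilution series for 72 h at 37 °C/5% CO2. They were lysed in cold 80% methanol/acetic acid containing d3-SAM internal standard. SAM was quantified by LC-MS/MS (MRM, m/z 399.2→250.1).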

The test system of experiment [3] is HCT116 MTAP-/-. The experiment is described as follows: Inhibition of cellular proliferation, 4 days, Cell Titer Glo, HCT116 MTAP-/-. It is filed as cell-based. The note with it: Homo sapiens, HCT-116, 96 h, IC50 score, read-out: 4 Day Relative Growth Inhibition (MTAP −/−). In a few lines: (§1)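 Isogenic human colon carcinoma lines differing only in MTAP status, plated 24 h before dosing, then exposed for 4 days at 37 °C/5% CO2 to a 10-point 3-fold dilution series (0.2% DMSO final). Read-out is Cell Titer Glo ATP luminescence, blank-subtracted and normalised to in-plate DMSO control, plotted as % proliferation change versus log molar concentration.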
(In general: In ATP-based viability assays light output follows the ATP content of the culture.)

In experiment [4] the test system is HCT116 MTAP +/+. The experiment is described as follows: Inhibition of cellular proliferation, 4 days, Cell Titer Glo, HCT116 MTAP+/+. Type of experiment: cell-based. The note with it: Homo sapiens, HCT-116, 96 h, IC50 score, read-out: 4 Day Relative Growth Inhibition (MTAP +/+). In short, it runs like this: as §1

A value given as a limit tells only on which side of the number the result lay.

T1 sequence (P31153 whole entry): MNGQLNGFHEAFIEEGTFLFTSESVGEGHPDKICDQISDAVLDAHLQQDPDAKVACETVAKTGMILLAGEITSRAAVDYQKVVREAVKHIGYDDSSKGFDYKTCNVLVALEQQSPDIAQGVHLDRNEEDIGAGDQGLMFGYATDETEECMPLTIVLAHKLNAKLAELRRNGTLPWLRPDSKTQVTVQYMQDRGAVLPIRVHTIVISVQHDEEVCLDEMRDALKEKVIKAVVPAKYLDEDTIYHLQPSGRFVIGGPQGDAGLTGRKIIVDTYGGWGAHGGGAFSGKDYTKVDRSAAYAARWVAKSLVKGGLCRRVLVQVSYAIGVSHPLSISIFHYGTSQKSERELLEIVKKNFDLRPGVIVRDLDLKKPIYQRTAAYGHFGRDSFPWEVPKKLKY

As for `[2H]C([2H])([2H])Oc1ccc(-n2c(=O)c(-c3ccc4nn(C)cc4c3)nc3ccc(OCC)nc32)cc1` [Example 324], the IC50 was less than 100 nM in experiment [1], less than 100 nM in experiment [2], less than 100 nM in experiment [3] and 100 to 1000 nM in experiment [4].

As to `[2H]C([2H])([2H])Oc1ccc(-n2c(=O)c(-c3ccc4nn(C)cc4c3)nc3ccc(OCC(F)F)nc32)cc1` [Example 325], the IC50 is less than 100 nM in experiment [1], less than 100 nM in experiment [2], less than 100 nM in experiment [3] and not below 1000 nM in experiment [4].

In the case of `[2H]C([2H])([2H])Oc1ccc(-n2c(=O)c(-c3ccc4nn(C)cc4c3)nc3ccc(OCC(F)(F)F)nc32)cc1` [Example 326], the IC50 in experiment [1] is less than 100 nM; in experiment [2], less than 100 nM; in experiment [3] it was less than 100 nM; in experiment [4], not below 1000 nM.

Regarding `COc1ccc(-n2c(=O)c(-c3ccc4nn(C)cc4c3)nc3ccc(OCC(F)(F)F)nc32)cc1` [Example 327], the IC50 in experiment [1] was less than 100 nM; in experiment [2] it was less than 100 nM; in experiment [3] it was less than 100 nM; in experiment [4], not below 1000 nM.

On to `Cn1cc2cc(-c3nc4ccc(OCC(F)(F)F)nc4n(-c4ccc(OC(F)F)cc4)c3=O)ccc2n1` [Example 328], for which the IC50 in experiment [1] was less than 100 nM; in experiment [2], less than 100 nM; in experiment [3] it was less than 100 nM; in experiment [4], not below 1000 nM.

As to `Cn1cc2cc(-c3nc4ccc(OCC(F)(F)F)nc4n(-c4ccc(C5CC5)cc4)c3=O)ccc2n1` [Example 329], the IC50 was less than 100 nM in experiment [1], less than 100 nM in experiment [2], less than 100 nM in experiment [3] and not below 1000 nM in experiment [4].

For `CCOc1ccc2nc(-c3ccc4nn(C)cc4c3)c(=O)n(-c3ccc(C4CC4)cc3)c2n1` [Example 330], the IC50 in experiment [1] is less than 100 nM; in experiment [2] it was less than 100 nM; in experiment [3], less than 100 nM; in experiment [4], not below 1000 nM.

Turning to `[2H]C([2H])([2H])Oc1ccc(-n2c(=O)c(-c3ccc4nn(C)cc4c3)nc3ccc(OC(C)C)nc32)cc1` [Example 331], the IC50 in experiment [1] was less than 100 nM; in experiment [2], less than 100 nM; in experiment [3], less than 100 nM; in experiment [4] it was not below 1000 nM.

With `Cn1cc2cc(-c3nc4ccc(OCC(F)(F)F)nc4n(-c4ccc(C5CC5)nc4)c3=O)ccc2n1` [Example 332], the IC50 in experiment [1] was less than 100 nM; in experiment [2], less than 100 nM; in experiment [3], less than 100 nM; in experiment [4] it was not below 1000 nM.

Take `Cc1ccc(-n2c(=O)c(-c3ccc4nn(C)cc4c3)nc3ccc(OCC(F)(F)F)nc32)cn1` [Example 333]: the IC50 is less than 100 nM in experiment [1], less than 100 nM in experiment [2], 100 to 1000 nM in experiment [3] and not below 1000 nM in experiment [4].

Turning to `COc1ccc(-n2c(=O)c(-c3ccc4nn(CCO)cc4c3)nc3ccc(OCC(F)(F)F)nc32)cc1` [Example 335, 2-(2-(2-hydroxyethyl)-2H-indazol-5-yl)-4-(4-methoxyphenyl)-6-(2,2,2-trifluoroethoxy)pyrido[2,3-b]pyrazin-3(4H)-one], the IC50 in experiment [1] was less than 100 nM; in experiment [2], less than 100 nM; in experiment [3], less than 100 nM; in experiment [4] it was not below 1000 nM.

Consider `CCNc1ccc2nc(-c3ccc4nn(C)cc4c3)c(=O)n(-c3ccc(OC(F)F)cc3)c2n1` [Example 338], for which the IC50 in experiment [1], in experiment [2], in experiment [3] and in experiment [4] was less than 100 nM throughout.

Consider `COc1ccc(-n2c(=O)c(-c3ccc4nc(C)n(C)c4c3)nc3ccc(OCC(F)(F)F)nc32)cc1` [Example 340], for which the IC50 in experiment [1] was less than 100 nM; in experiment [2], less than 100 nM; in experiment [3], less than 100 nM; in experiment [4], not below 1000 nM.

In the case of `CCNc1ccc2nc(-c3ccc4nn(C)cc4c3)c(=O)n(-c3ccc(OC)cc3)c2n1` [Example 341], the IC50 in experiment [1] is less than 100 nM; in experiment [2], less than 100 nM; in experiment [3], less than 100 nM; in experiment [4], not below 1000 nM.

On to `[2H]C([2H])([2H])Oc1ccc(-n2c(=O)c(-c3ccc4nn(C)cc4c3)cc3ncc(OCC)nc32)cc1` [Example 342], for which the IC50 was less than 100 nM in experiment [1], less than 100 nM in experiment [2], less than 100 nM in experiment [3] and 100 to 1000 nM in experiment [4].

With `COc1ccc(-n2c(=O)c(-c3ccc4nn(C)cc4c3)cc3ncc(OCC(F)(F)F)nc32)cc1` [Example 343, 5-(4-methoxyphenyl)-7-(2-methyl-2H-indazol-5-yl)-3-(2,2,2-trifluoroethoxy)pyrido[2,3-b]pyrazin-6(5H)-one], the IC50 in experiment [1] was less than 100 nM; in experiment [2], less than 100 nM; in experiment [3], less than 100 nM; in experiment [4] it was not below 1000 nM.

For the compound `[2H]C([2H])([2H])Oc1ccc(-n2c(=O)c(-c3ccc4nn(C)cc4c3)cc3ncc(OCC(F)F)nc32)cc1` [Example 344], the IC50 in experiment [1] is less than 100 nM; in experiment [2], less than 100 nM; in experiment [3], less than 100 nM; in experiment [4] it was not below 1000 nM.

Consider `[2H]C([2H])([2H])Oc1ccc(-n2c(=O)c(-c3ccc4nn(C)cc4c3)cc3ncc(OCC(F)(F)F)nc32)cc1` [Example 345], for which the IC50 in experiment [1] was less than 100 nM; in experiment [2] it was less than 100 nM; in experiment [3], 100 to 1000 nM; in experiment [4], not below 1000 nM.

In the case of `Cn1cc2cc(-c3nc4ccc(OCC(F)(F)F)nc4n(-c4ccc(Br)cc4)c3=O)ccc2n1` [Example 346, 4-(4-bromophenyl)-2-(2-methyl-2H-indazol-5-yl)-6-(2,2,2-trifluoroethoxy)pyrido[2,3-b]pyrazin-3(4H)-one], the IC50 in experiment [1] was less than 100 nM; in experiment [2], less than 100 nM; in experiment [3], less than 100 nM; in experiment [4], not below 1000 nM.

For `COc1ccc(-n2c(=O)c(-c3ccc4nn(CCN)cc4c3)nc3ccc(OCC(F)(F)F)nc32)cc1` [Example 347, 2-(2-(2-aminoethyl)-2H-indazol-5-yl)-4-(4-methoxyphenyl)-6-(2,2,2-trifluoroethoxy)pyrido[2,3-b]pyrazin-3(4H)-one], the IC50 in experiment [1] was less than 100 nM; in experiment [2] it was less than 100 nM; in experiment [3] it was 100 to 1000 nM; in experiment [4] it was not below 1000 nM.

As for `CNc1ccc(-n2c(=O)c(-c3ccc4nn(C)cc4c3)nc3ccc(OCC(F)(F)F)nc32)cn1` [Example 348, 2-(2-methyl-2H-indazol-5-yl)-4-(6-(methylamino)pyridin-3-yl)-6-(2,2,2-trifluoroethoxy)pyrido[2,3-b]pyrazin-3(4H)-one], the IC50 is less than 100 nM in experiment [1], less than 100 nM in experiment [2], less than 100 nM in experiment [3] and not below 1000 nM in experiment [4].

`COc1ccc(-n2c(=O)c(-c3ccc4nc(N)n(C)c4c3)nc3ccc(OCC(F)(F)F)nc32)cc1` [Example 351, 2-(2-amino-1-methyl-1H-benzo[d]imidazol-6-yl)-4-(4-methoxyphenyl)-6-(2,2,2-trifluoroethoxy)pyrido[2,3-b]pyrazin-3(4H)-one]: the IC50 in experiment [1] is less than 100 nM; in experiment [2] it was less than 100 nM; in experiment [3] it was less than 100 nM; in experiment [4], not below 1000 nM.

On to `COc1ccc(-n2c(=O)c(-c3ccc4nn(C)cc4c3)nc3c(N)cc(OCC(F)(F)F)nc32)cc1` [Example 352, 8-amino-4-(4-methoxyphenyl)-2-(2-methyl-2H-indazol-5-yl)-6-(2,2,2-trifluoroethoxy)pyrido[2,3-b]pyrazin-3(4H)-one], for which the IC50 is less than 100 nM in experiment [1], less than 100 nM in experiment [2], less than 100 nM in experiment [3] and 100 to 1000 nM in experiment [4].

As for `COc1ccc(-n2c(=O)c(-c3ccc4nc(N)n(C)c4c3)cc3ccc(OCC(F)(F)F)nc32)cc1` [Example 353, 3-(2-amino-1-methyl-1H-benzo[d]imidazol-6-yl)-1-(4-methoxyphenyl)-7-(2,2,2-trifluoroethoxy)-1,8-naphthyridin-2(1H)-one], the IC50 in experiment [1] is less than 100 nM; in experiment [2] it was less than 100 nM; in experiment [3], less than 100 nM; in experiment [4] it was not below 1000 nM.
